The test system of test [1] is NCI-H358 cells (K-Ras G12C). In words: Potency assay: pERK in NCI-H358 cells. Format: cell-based, human. The note with it: Homo sapiens, NCI-H358; H358 KRAS G12C; read-out: pERK EC50. Put shortly:
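4 h cpd, 37 °C; 10-pt 3-fold series, 10 mM DMSO top stock, duplicates. Readout pERK: AlphaLISA SureFire Ultra or In-Cell Western (IR-800CW secondary, DRAQ5 DNA stain). IC50, 4-PL fit vs log conc.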

In another test the target is K-Ras G13C (Homo sapiens (Human), UniProt P01116+P62937, G13C). The test can be described thus: Ras-Raf (BRAF RBD) disruption / FRET / MOA assay, KRAS G13C. Format: biochemical. Conditions: KRAS G13C; Ras-Raf disruption/FRET/MOA assay; read-out: IC50* KRAS G13C FRET data. The gist of the method: (§1)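 Ternary complex formation (Ras–compound–cyclophilin A) displacing BRAF RBD, monitored by TR-FRET. Three hours at 25° C with compound (top 30 μM final), then 1.5 h with the labelled antibodies. Lower ratio than DMSO indicates disruption; IC50 reported.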
Sequence of K-Ras G13C (P01116-2 other isoform, or with tags, fused parts or gaps G13C): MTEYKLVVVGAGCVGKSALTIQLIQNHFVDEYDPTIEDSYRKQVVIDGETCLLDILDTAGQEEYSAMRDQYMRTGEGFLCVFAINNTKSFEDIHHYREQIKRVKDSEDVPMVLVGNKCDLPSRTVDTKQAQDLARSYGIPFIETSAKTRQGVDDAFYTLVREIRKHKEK
Sequence of K-Ras G13C (P62937 whole entry): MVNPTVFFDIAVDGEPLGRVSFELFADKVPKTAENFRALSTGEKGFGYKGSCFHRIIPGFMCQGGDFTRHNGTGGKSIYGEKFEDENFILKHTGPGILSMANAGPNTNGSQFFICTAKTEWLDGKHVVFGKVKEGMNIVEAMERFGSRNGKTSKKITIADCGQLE

A further test deals with KRAS G12V (Homo sapiens (Human), UniProt P01116+P62937, G12V). In words: Ras-Raf (BRAF RBD) disruption / FRET / MOA assay, KRAS G12V. Format: biochemical. The note with it: read-out: IC50* KRAS G12V FRET data. Put shortly:
as §1

Another test concerns the target KRAS WT (Homo sapiens (Human), UniProt P01116+P62937). In words: Ras-Raf (BRAF RBD) disruption / FRET / MOA assay, KRAS WT. Format: biochemical. Conditions: read-out: IC50* KRAS WT FRET data. The gist of the method:
as §1

The target in a further test is KRAS G13D (Homo sapiens (Human), UniProt P01116+P62937, G13D). In words: Ras-Raf (BRAF RBD) disruption / FRET / MOA assay, KRAS G13D. It counts as biochemical. Conditions: read-out: IC50* KRAS G13D FRET data. Put shortly:
as §1

Another test has as its target KRAS Q61H (Homo sapiens (Human), UniProt P01116+P62937, Q61H). In words: Ras-Raf (BRAF RBD) disruption / FRET / MOA assay, KRAS Q61H. Conditions: Ras-Raf disruption/FRET/MOA assay; class symbols; read-out: KRAS Q61H FRET data IC50. Format: biochemical. The gist of the method: (§2)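 Compounds were tested as a 10-point 3-fold dilution series from 30 μM final for their ability to drive ternary complex formation between nucleotide-loaded Ras and cyclophilin A, displacing the BRAF RBD. After 3 h at 25° C., anti-His Eu-W1024 (10 nM) and anti-GST allophycocyanin (50 nM) were added for 1.5 h. A TR-FRET ratio decrease versus DMSO gave IC50.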

The next test has as its target NRAS WT (Homo sapiens (Human), UniProt P01111+P62937). The test can be described thus: Ras-Raf (BRAF RBD) disruption / FRET / MOA assay, NRAS WT. It counts as biochemical. The note with it: read-out: IC50* NRAS WT FRET data. The gist of the method: as §2

SMILES strings stand for the structures.

From patent US11566007B2, “Ras inhibitors” (Revolution Medicines, Inc., priority 2019, dated 2023) come the findings set out here.

Sequence of KRAS WT (P01116-2 other isoform, or with tags, fused parts or gaps): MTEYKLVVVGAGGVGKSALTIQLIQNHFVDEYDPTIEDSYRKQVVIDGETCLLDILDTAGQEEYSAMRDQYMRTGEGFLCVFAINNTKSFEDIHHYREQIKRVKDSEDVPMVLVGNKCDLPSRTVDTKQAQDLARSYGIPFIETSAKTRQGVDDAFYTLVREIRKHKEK
Sequence of KRAS WT (P62937 whole entry): as the sequence (P62937 whole entry) above
Sequence of KRAS G12V (P01116-2 other isoform, or with tags, fused parts or gaps G12V): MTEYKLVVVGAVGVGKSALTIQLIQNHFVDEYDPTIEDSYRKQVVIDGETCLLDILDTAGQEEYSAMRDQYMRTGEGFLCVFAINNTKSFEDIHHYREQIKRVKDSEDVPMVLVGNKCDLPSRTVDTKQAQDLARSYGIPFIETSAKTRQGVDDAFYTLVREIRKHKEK
Sequence of KRAS G12V (P62937 whole entry): as the sequence (P62937 whole entry) above
Sequence of KRAS Q61H (P01116-2 other isoform, or with tags, fused parts or gaps Q61H): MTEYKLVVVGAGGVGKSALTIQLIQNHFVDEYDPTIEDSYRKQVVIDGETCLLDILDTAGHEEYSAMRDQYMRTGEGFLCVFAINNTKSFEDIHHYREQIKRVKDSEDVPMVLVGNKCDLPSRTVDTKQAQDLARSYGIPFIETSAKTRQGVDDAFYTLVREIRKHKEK
Sequence of KRAS Q61H (P62937 whole entry): as the sequence (P62937 whole entry) above
Sequence of KRAS G13D (P01116-2 other isoform, or with tags, fused parts or gaps G13D): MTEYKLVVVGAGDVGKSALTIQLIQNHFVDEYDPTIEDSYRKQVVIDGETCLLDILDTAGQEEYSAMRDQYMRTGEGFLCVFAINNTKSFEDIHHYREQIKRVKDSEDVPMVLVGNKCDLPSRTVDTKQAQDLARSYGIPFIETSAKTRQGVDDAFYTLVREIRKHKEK
Sequence of KRAS G13D (P62937 whole entry): as the sequence (P62937 whole entry) above
Sequence of NRAS WT (P01111 whole entry): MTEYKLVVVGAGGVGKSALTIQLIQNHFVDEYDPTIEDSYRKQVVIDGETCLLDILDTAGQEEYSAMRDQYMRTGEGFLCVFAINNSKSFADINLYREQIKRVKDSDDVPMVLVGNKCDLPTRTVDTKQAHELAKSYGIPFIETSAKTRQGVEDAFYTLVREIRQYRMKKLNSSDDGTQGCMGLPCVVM
Sequence of NRAS WT (P62937 whole entry): as the sequence (P62937 whole entry) above

For the compound `CCn1c(-c2cccnc2[C@H](C)OC)c2c3cc(ccc31)-c1csc(n1)C[C@H](NC(=O)[C@H](C(C)C)N(C)C(=O)N1CCC3(CC1)CN(C(=O)/C=C/CN1CCOCC1)C3)C(=O)N1CCC[C@H](N1)C(=O)OCC(C)(C)C2` (atropisomer, axis not shown) [Example A669], the EC50 (in general, the concentration giving half of the maximal effect) in test [1] was less than 5000 nM. The IC50 – broadly, the concentration that inhibits the measured activity by half – at K-Ras G13C fell in the range of 100 to 1000 nM; at KRAS G12V it was 100 to 1000 nM; on KRAS WT, 100 to 1000 nM; at KRAS G13D, 100 to 1000 nM; at KRAS Q61H, 10 to 100 nM; at NRAS WT it was 10 to 100 nM.
As to `CCn1c(-c2cccnc2[C@H](C)OC)c2c3cc(ccc31)-c1csc(n1)C[C@H](NC(=O)[C@H](C(C)C)N(C)C(=O)N1CCC3(CC1)CN(C(=O)/C=C/CN1CCCCC1)C3)C(=O)N1CCC[C@H](N1)C(=O)OCC(C)(C)C2` (atropisomer, axis not shown) [Example A670], the EC50 in test [1] is less than 5000 nM. The IC50 on K-Ras G13C, on KRAS G12V, at KRAS WT, on KRAS G13D, on KRAS Q61H and on NRAS WT was 100 to 1000 nM throughout.
Consider `C/C=C/C(=O)N1CC2(CCN(C(=O)N(C)[C@H](C(=O)N[C@H]3Cc4nc(cs4)-c4ccc5c(c4)c(c(-c4cccnc4[C@H](C)OC)n5CC)CC(C)(C)COC(=O)[C@@H]4CCCN(N4)C3=O)C(C)C)CC2)C1` (atropisomer, axis not shown) [Example A671], for which the EC50 in test [1] is less than 5000 nM. The IC50 at K-Ras G13C was 100 to 1000 nM; at KRAS G12V it was 100 to 1000 nM; on KRAS WT it was 100 to 1000 nM; on KRAS G13D it was 100 to 1000 nM; on KRAS Q61H, 10 to 100 nM; on NRAS WT it was 100 to 1000 nM.
As for `CCn1c(-c2cccnc2[C@H](C)OC)c2c3cc(ccc31)-c1nc(co1)C[C@H](NC(=O)[C@@H](COC1CN(C(=O)C#CC(C)(C)N(C)C)C1)C(C)C)C(=O)N1CCC[C@H](N1)C(=O)OCC(C)(C)C2` (atropisomer, axis not shown) [Example A675, (2R)-2-(((1-(4-(dimethylamino)-4-methylpent-2-ynoyl)azetidin-3-yl)oxy)methyl)-N-((6^3S,4S,Z)-1^1-ethyl-1^2-(2-((S)-1-methoxyethyl)pyridin-3-yl)-10,10-dimethyl-5,7-dioxo-6^1,6^2,6^3,6^4,6^5,6^6-hexahydro-1^1H-8-oxa-2(2,4)-oxazola-1(5,3)-indola-6(1,3)-pyridazinacycloundecaphane-4-yl)-3-methylbutanamide], the EC50 in test [1] was less than 5000 nM. In addition, the concentration for half-maximal inhibition (IC50) at K-Ras G13C, on KRAS G12V, at KRAS WT, on KRAS G13D, at KRAS Q61H and on NRAS WT was more than 10000 nM each time.
For `C=CC(=O)N1CCN(C(=O)N(C)[C@H](C(=O)N[C@H]2Cc3nc(cs3)-c3ccc4c(c3)c(c(-c3cccnc3[C@H](C)OC)n4CC(F)(F)F)CC(C)(C)COC(=O)[C@@H]3CCCN(N3)C2=O)C(C)C)CC12CC2` (atropisomer, axis not shown) [Example A679], the EC50 in test [1] is less than 5000 nM. Moreover, the 50% inhibitory concentration (IC50) was in the range of 10 to 100 nM at K-Ras G13C; 10 to 100 nM on KRAS G12V; 10 to 100 nM at KRAS WT; 100 to 1000 nM on KRAS G13D; 10 to 100 nM at KRAS Q61H; 10 to 100 nM at NRAS WT.
`C=C(OC)C(=O)N1CC2(CCN(C(=O)N(C)[C@H](C(=O)N[C@H]3Cc4nc(cs4)-c4ccc5c(c4)c(c(-c4cccnc4[C@H](C)OC)n5CC)CC(C)(C)COC(=O)[C@@H]4CCCN(N4)C3=O)C(C)C)CC2)C1` (atropisomer, axis not shown) [Example A681]: the EC50 in test [1] is less than 5000 nM. In addition, the IC50 at K-Ras G13C was 100 to 1000 nM; at KRAS G12V, 100 to 1000 nM; on KRAS WT it was 100 to 1000 nM; on KRAS G13D, 100 to 1000 nM; at KRAS Q61H, 10 to 100 nM; on NRAS WT, 100 to 1000 nM.
`C=C(F)C(=O)N1CC2(CCN(C(=O)N(C)[C@H](C(=O)N[C@H]3Cc4nc(cs4)-c4ccc5c(c4)c(c(-c4cccnc4[C@H](C)OC)n5CC)CC(C)(C)COC(=O)[C@@H]4CCCN(N4)C3=O)C(C)C)CC2)C1` (atropisomer, axis not shown) [Example A682]: the EC50 in test [1] was less than 5000 nM. Moreover, the IC50 was 100 to 1000 nM at K-Ras G13C; 100 to 1000 nM on KRAS G12V; 100 to 1000 nM on KRAS WT; 100 to 1000 nM at KRAS G13D; 10 to 100 nM on KRAS Q61H; 100 to 1000 nM at NRAS WT.
As to `C=CC(=O)N1CC2(CCN2C(=O)N(C)[C@H](C(=O)N[C@H]2Cc3cccc(c3)-c3ccc4c(c3)c(c(-c3cccnc3[C@H](C)OC)n4CC)CC(C)(C)COC(=O)[C@@H]3CCCN(N3)C2=O)C(C)C)C1` (atropisomer, axis not shown) [Example A684], the EC50 in test [1] was less than 5000 nM. In addition, the IC50 at K-Ras G13C fell in the range of 100 to 1000 nM; at KRAS G12V, 100 to 1000 nM; on KRAS WT, 100 to 1000 nM; on KRAS G13D it was 100 to 1000 nM; on KRAS Q61H it was 10 to 100 nM; on NRAS WT it was 100 to 1000 nM.
Regarding `C=CC(=O)N1C[C@H]2CN(C(=O)N(C)[C@H](C(=O)N[C@H]3Cc4nc(cs4)-c4ccc5c(c4)c(c(-c4cccnc4[C@H](C)OC)n5CC)CC(C)(C)COC(=O)[C@@H]4CCCN(N4)C3=O)C(C)C)[C@H]2C1` (atropisomer, axis not shown) [Example A686], the EC50 in test [1] is less than 5000 nM. Also, the IC50 at K-Ras G13C lay in the range of 100 to 1000 nM; on KRAS G12V, 100 to 1000 nM; on KRAS WT, 100 to 1000 nM; at KRAS G13D it was 100 to 1000 nM; at KRAS Q61H, 10 to 100 nM; at NRAS WT it was 100 to 1000 nM.
Regarding `C=CC(=O)N1CC[C@H]2[C@@H](C1)CN2C(=O)N(C)[C@H](C(=O)N[C@H]1Cc2nc(cs2)-c2ccc3c(c2)c(c(-c2cccnc2[C@H](C)OC)n3CC)CC(C)(C)COC(=O)[C@@H]2CCCN(N2)C1=O)C(C)C` (atropisomer, axis not shown) [Example A687], the EC50 in test [1] was less than 5000 nM. Also, the IC50 is 100 to 1000 nM on K-Ras G13C; 100 to 1000 nM at KRAS G12V; 100 to 1000 nM at KRAS WT; 100 to 1000 nM at KRAS G13D; 10 to 100 nM on KRAS Q61H; 100 to 1000 nM on NRAS WT.
As to `CCn1c(-c2cccnc2[C@H](C)OC)c2c3cc(ccc31)-c1csc(n1)C[C@H](NC(=O)C[C@@H]1COC3(CN(C(=O)C#CC(C)(C)N(C)C)C3)O1)C(=O)N1CCC[C@H](N1)C(=O)OCC(C)(C)C2` (atropisomer, axis not shown) [Example A691], the EC50 in test [1] was less than 5000 nM. In addition, the IC50 on K-Ras G13C, at KRAS G12V, on KRAS WT, on KRAS G13D, on KRAS Q61H and on NRAS WT was 1000 to 10000 nM each time.
Consider `CCn1c(-c2cccnc2[C@H](C)OC)c2c3cc(ccc31)-c1cnc(o1)C[C@H](NC(=O)[C@H](C(C)C)N(C)C(=O)[C@H]1CCN(C(=O)C#CC(C)(C)N(C)C)C1)C(=O)N1CCC[C@H](N1)C(=O)OCC(C)(C)C2` (atropisomer, axis not shown) [Example A692, (3S)-1-(4-(dimethylamino)-4-methylpent-2-ynoyl)-N-((2S)-1-(((6^3S,4S)-1^1-ethyl-1^2-(2-((S)-1-methoxyethyl)pyridin-3-yl)-10,10-dimethyl-5,7-dioxo-6^1,6^2,6^3,6^4,6^5,6^6-hexahydro-1^1H-8-oxa-2(5,2)-oxazola-1(5,3)-indola-6(1,3)-pyridazinacycloundecaphane-4-yl)amino)-3-methyl-1-oxobutan-2-yl)-N-methylpyrrolidine-3-carboxamide], for which, in test [1], the EC50 was less than 5000 nM. Further, the IC50 at K-Ras G13C is 100 to 1000 nM; on KRAS G12V it was 1000 to 10000 nM; at KRAS WT, 1000 to 10000 nM; at KRAS G13D, more than 10000 nM; at KRAS Q61H, 1000 to 10000 nM; on NRAS WT, more than 10000 nM.
Consider `C=CC(=O)N1CCOC2(CCN(C(=O)N(C)[C@H](C(=O)N[C@H]3Cc4nc(cs4)-c4ccc5c(c4)c(c(-c4cccnc4[C@H](C)OC)n5CC)CC(C)(C)COC(=O)[C@@H]4CCCN(N4)C3=O)C(C)C)CC2)C1` (atropisomer, axis not shown) [Example A695], for which the EC50 in test [1] was less than 5000 nM. The IC50 is 10 to 100 nM at K-Ras G13C; 100 to 1000 nM at KRAS G12V; 100 to 1000 nM on KRAS WT; 100 to 1000 nM on KRAS G13D; 100 to 1000 nM at KRAS Q61H; 100 to 1000 nM at NRAS WT.
In the case of `C=CC(=O)N1CCC2(CC1)CCN(C(=O)N(C)[C@H](C(=O)N[C@H]1Cc3nc(cs3)-c3ccc4c(c3)c(c(-c3cccnc3[C@H](C)OC)n4CC)CC(C)(C)COC(=O)[C@@H]3CCCN(N3)C1=O)C(C)C)CC2` (atropisomer, axis not shown) [Example A697], the EC50 in test [1] was less than 5000 nM. Further, the IC50 is 100 to 1000 nM on K-Ras G13C; 100 to 1000 nM on KRAS G12V; 100 to 1000 nM on KRAS WT; 100 to 1000 nM on KRAS G13D; 10 to 100 nM on KRAS Q61H; 10 to 100 nM on NRAS WT.
